The record followed here is patent US20210255193A1, “LYSINE REACTIVE PROBES AND USES THEREOF” (The Scripps Research Institute, priority 2017, published 2021).

Common to all, as to assay: competitive isoTOP-ABPP
What all share (format): binding

The target in experiment [1] is T1, EEF1G Elongation factor 1-gamma (Homo sapiens, UniProt P26641).
T1 construct: isoTOP-ABPP experiments performed in cell lysates (in vitro); endogenous in cells; host or cells: soluble proteome of human cancer cell lines (MDA-MB-231; Ramos and Jurkat also prepared)
As to conditions: for isoTOP-ABPP reactivity ratio at lysine P26641_K227: 231 sol. The method, boiled down:
(§1)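 Cell lysate treated in vitro with fragments (50 μM activated esters, 100 μM guanidinylating agents) or DMSO, labelled 1 h at ambient temperature with 0.1 mM STP-alkyne, CuAAC-tagged with light/heavy TEV tags, analysed by MS. R = DMSO/compound MS1 peak-area ratio; lysines with R≥4 called liganded.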

The target in experiment [2] is T2, LRRC20 Leucine-rich repeat-containing protein 20 (Homo sapiens, UniProt Q8TCA0).
T2 construct: isoTOP-ABPP experiments performed in cell lysates (in vitro); endogenous in cells; host or cells: soluble proteome of human cancer cell lines (MDA-MB-231; Ramos and Jurkat also prepared)
T2 sequence (Q8TCA0 1-184): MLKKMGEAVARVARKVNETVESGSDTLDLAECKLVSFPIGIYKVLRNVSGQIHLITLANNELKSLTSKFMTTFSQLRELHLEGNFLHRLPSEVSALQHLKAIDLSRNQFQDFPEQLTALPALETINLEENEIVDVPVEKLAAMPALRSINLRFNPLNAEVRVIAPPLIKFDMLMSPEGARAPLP
The note with it: for isoTOP-ABPP reactivity ratio at lysine Q8TCA0_K43 / isoTOP-ABPP ratio (R) at liganded lysine Q8TCA0_K43: 50 uM, in vitro; for isoTOP-ABPP reactivity ratio at lysine Q8TCA0_K43: 231 sol; for isoTOP-ABPP ratio (R) at liganded lysine Q8TCA0_K43: sol, 231. The gist of the method: as §1

For experiment [3], the target named is T3, IMPDH1 Inosine-5-monophosphate dehydrogenase 1 (Homo sapiens, UniProt P20839).
T3 construct: isoTOP-ABPP experiments performed in cell lysates (in vitro); endogenous in cells; host or cells: soluble proteome of human cancer cell lines (MDA-MB-231; Ramos and Jurkat also prepared)
As to conditions: for isoTOP-ABPP reactivity ratio at lysine P20839_K208 / isoTOP-ABPP ratio (R) at liganded lysine P20839_K208: 50 uM, in vitro; for isoTOP-ABPP reactivity ratio at lysine P20839_K208: 231 sol; for isoTOP-ABPP ratio (R) at liganded lysine P20839_K208: sol, 231. The gist of the method:
as §1

Experiment [4] concerns the target T4, DNMT1 DNA (cytosine-5)-methyltransferase 1 (Homo sapiens, UniProt P26358).
T4 construct: isoTOP-ABPP experiments performed in cell lysates (in vitro); endogenous in cells; host or cells: soluble proteome of human cancer cell lines (MDA-MB-231; Ramos and Jurkat also prepared)
The note with it: for isoTOP-ABPP reactivity ratio at lysine P26358_K45 / isoTOP-ABPP ratio (R) at liganded lysine P26358_K45: 50 uM, in vitro; for isoTOP-ABPP reactivity ratio at lysine P26358_K45: 231 sol; for isoTOP-ABPP ratio (R) at liganded lysine P26358_K45: sol, 231. The method, boiled down: as §1

Experiment [5] has as its target T5, TTR Transthyretin (Homo sapiens, UniProt P02766).
T5 construct: isoTOP-ABPP experiments performed in cell lysates (in vitro); endogenous in cells; host or cells: MDA-MB-231 soluble lysate
The note with it: for isoTOP-ABPP reactivity ratio at lysine P02766_K35 / isoTOP-ABPP ratio (R) at liganded lysine P02766_K35: 50 uM, in vitro; for isoTOP-ABPP reactivity ratio at lysine P02766_K35: 231 sol; for isoTOP-ABPP ratio (R) at liganded lysine P02766_K35: sol, 231. The method, boiled down: as §1

For experiment [6], the target named is T6, IFIT3 Interferon-induced protein with tetratricopeptide (Homo sapiens, UniProt O14879).
T6 construct: isoTOP-ABPP experiments performed in cell lysates (in vitro); endogenous in cells; host or cells: MDA-MB-231 soluble lysate
T6 sequence (O14879 1-490): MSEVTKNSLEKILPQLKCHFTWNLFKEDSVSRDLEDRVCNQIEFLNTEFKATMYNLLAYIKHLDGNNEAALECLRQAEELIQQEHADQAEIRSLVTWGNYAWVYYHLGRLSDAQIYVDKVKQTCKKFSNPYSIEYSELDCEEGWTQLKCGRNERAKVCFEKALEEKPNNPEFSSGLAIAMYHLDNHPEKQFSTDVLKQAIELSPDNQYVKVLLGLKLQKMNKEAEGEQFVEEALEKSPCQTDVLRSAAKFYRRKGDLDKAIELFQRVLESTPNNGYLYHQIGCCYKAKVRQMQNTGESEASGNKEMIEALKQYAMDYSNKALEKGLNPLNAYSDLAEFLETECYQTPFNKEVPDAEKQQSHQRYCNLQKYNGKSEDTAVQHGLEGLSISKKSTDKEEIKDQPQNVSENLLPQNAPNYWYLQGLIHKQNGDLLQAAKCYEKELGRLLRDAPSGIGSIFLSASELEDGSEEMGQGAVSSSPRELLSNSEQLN
The note with it: for isoTOP-ABPP ratio (R) at liganded lysine O14879_K148: sol, 231. The gist of the method: as §1

T1 sequence (P26641 whole entry): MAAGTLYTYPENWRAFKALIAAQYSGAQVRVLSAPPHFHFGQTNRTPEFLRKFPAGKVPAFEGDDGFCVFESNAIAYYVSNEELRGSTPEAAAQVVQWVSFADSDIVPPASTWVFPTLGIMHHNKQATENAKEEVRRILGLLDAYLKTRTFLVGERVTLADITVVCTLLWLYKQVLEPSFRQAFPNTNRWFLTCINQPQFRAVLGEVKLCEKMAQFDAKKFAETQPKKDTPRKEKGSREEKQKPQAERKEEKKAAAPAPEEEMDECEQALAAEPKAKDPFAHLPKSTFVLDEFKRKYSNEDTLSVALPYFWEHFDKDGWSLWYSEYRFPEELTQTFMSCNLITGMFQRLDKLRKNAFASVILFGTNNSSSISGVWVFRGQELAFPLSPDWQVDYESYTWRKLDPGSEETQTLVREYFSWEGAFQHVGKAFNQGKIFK
T4 sequence (P26358 whole entry): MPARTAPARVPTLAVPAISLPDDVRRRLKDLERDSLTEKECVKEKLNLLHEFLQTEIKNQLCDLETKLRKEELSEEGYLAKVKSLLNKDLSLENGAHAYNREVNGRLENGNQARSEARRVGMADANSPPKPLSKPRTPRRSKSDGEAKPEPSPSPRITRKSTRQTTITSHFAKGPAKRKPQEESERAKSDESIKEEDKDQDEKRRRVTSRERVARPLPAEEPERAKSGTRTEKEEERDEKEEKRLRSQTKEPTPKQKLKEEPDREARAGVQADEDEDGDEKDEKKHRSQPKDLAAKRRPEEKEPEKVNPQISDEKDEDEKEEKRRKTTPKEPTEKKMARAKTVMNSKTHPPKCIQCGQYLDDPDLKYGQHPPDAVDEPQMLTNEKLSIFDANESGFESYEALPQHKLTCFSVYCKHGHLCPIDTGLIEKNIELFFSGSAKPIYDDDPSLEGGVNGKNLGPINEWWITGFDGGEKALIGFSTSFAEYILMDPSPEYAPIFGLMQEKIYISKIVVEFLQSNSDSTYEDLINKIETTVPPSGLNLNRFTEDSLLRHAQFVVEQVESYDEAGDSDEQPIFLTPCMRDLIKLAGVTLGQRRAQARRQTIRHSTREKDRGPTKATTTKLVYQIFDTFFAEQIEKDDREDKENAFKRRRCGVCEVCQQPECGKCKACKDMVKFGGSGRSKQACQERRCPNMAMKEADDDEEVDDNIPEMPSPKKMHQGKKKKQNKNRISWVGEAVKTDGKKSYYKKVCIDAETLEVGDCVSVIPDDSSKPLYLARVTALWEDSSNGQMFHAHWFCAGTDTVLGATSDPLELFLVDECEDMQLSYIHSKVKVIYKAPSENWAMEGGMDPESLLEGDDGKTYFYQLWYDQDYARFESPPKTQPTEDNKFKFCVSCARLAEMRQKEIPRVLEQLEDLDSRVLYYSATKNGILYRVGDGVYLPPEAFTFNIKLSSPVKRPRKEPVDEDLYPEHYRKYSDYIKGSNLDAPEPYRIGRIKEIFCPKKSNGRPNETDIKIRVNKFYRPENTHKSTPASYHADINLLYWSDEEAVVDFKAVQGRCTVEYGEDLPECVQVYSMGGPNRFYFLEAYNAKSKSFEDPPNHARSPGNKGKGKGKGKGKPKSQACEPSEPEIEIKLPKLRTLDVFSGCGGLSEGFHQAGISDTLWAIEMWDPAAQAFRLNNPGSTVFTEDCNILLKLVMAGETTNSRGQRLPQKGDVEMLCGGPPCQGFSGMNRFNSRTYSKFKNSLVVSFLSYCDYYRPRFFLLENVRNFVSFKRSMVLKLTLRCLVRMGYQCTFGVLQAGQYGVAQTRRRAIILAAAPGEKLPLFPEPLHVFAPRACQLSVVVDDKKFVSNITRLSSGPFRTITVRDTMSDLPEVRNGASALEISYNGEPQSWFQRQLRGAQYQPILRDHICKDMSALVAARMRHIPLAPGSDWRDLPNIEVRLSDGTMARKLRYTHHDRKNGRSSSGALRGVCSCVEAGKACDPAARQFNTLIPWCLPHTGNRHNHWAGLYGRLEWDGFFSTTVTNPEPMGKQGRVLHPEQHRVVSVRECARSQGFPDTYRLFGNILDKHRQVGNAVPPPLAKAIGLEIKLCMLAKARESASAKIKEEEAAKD
T3 sequence (P20839 whole entry): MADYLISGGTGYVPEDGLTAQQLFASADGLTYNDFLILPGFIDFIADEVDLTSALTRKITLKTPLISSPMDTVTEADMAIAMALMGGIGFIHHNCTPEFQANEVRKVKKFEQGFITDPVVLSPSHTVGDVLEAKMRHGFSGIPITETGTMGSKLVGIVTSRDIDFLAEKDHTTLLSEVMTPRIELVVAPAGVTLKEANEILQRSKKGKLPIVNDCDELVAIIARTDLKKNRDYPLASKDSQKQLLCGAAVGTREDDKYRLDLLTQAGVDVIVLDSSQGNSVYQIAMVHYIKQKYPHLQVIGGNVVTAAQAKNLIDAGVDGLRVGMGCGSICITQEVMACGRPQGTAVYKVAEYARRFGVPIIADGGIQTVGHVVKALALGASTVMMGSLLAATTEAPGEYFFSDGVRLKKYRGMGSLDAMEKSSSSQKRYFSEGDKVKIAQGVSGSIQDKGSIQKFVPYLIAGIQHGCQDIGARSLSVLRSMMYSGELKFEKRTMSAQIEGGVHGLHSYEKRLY

Consider `O=C(CCc1cn(-c2ccccc2)nc1-c1ccccc1)Oc1ccc([N+](=O)[O-])cc1[N+](=O)[O-]` [fragment 29, 2,4-Dinitrophenyl 3-(1,3-diphenyl-1H-pyrazol-4-yl)propanoate], for which the “isoTOP-ABPP reactivity ratio at lysine P26641_K227” value in experiment [1] (50 uM, in vitro) worked out at 0.7. The “isoTOP-ABPP reactivity ratio at lysine Q8TCA0_K43” value in experiment [2] amounted to 1.3. For the same compound, in experiment [3], the “isoTOP-ABPP reactivity ratio at lysine P20839_K208” value amounted to 1.3. The “isoTOP-ABPP reactivity ratio at lysine P26358_K45” value in experiment [4] was determined as 0.9. Moreover, the “isoTOP-ABPP reactivity ratio at lysine P02766_K35” value in experiment [5] came to 1.6. Also, in experiment [6] (50 uM, 231 sol, in vitro), the “isoTOP-ABPP reactivity ratio at lysine O14879_K148” value was determined as 4.1.
In the case of `O=C(Oc1ccc([N+](=O)[O-])cc1[N+](=O)[O-])C(c1ccccc1)c1ccccc1` [fragment 30, 2,4-Dinitrophenyl 2,2-diphenylacetate], the “isoTOP-ABPP reactivity ratio at lysine P26641_K227” value in experiment [1] (50 uM, in vitro) is 0.9. Moreover, the “isoTOP-ABPP reactivity ratio at lysine Q8TCA0_K43” value in experiment [2] is listed as 1.5. In addition, the “isoTOP-ABPP reactivity ratio at lysine P20839_K208” value in experiment [3] worked out at 1.6. In addition, the “isoTOP-ABPP reactivity ratio at lysine P02766_K35” value in experiment [5] is 1.5.
Take `COc1cc(CCC(=O)Oc2ccc([N+](=O)[O-])cc2[N+](=O)[O-])cc(OC)c1OC` [fragment 33, 2,4-Dinitrophenyl 3-(3,4,5-trimethoxyphenyl)propanoate]: the “isoTOP-ABPP reactivity ratio at lysine P26641_K227” value in experiment [1] (50 uM, in vitro) is 0.7. The “isoTOP-ABPP reactivity ratio at lysine P20839_K208” value in experiment [3] came out at 1.2. In addition, in experiment [4], the “isoTOP-ABPP reactivity ratio at lysine P26358_K45” value worked out at 0.9. In addition, in experiment [5], the “isoTOP-ABPP reactivity ratio at lysine P02766_K35” value was found to be 2.7.
Turning to `O=C(CCc1coc2cc(F)ccc2c1=O)Oc1ccc([N+](=O)[O-])cc1[N+](=O)[O-]` [fragment 36, 2,4-Dinitrophenyl 3-(7-fluoro-4-oxo-4H-chromen-3-yl)propanoate], in experiment [2], the “isoTOP-ABPP ratio (R) at liganded lysine Q8TCA0_K43” value came to 1.1. The “isoTOP-ABPP ratio (R) at liganded lysine P20839_K208” value in experiment [3] is on record as 1.6. The “isoTOP-ABPP ratio (R) at liganded lysine P26358_K45” value in experiment [4] stood at 0.8. Further, the “isoTOP-ABPP ratio (R) at liganded lysine P02766_K35” value in experiment [5] is 2.4. For the same compound, the “isoTOP-ABPP ratio (R) at liganded lysine O14879_K148” value in experiment [6] (50 uM, in vitro) amounted to 3.4.
As to `O=C(Oc1ccc([N+](=O)[O-])cc1[N+](=O)[O-])c1ccc(-c2ccccc2)cc1` [fragment 37, 2,4-Dinitrophenyl [1,1′-biphenyl]-4-carboxylate], the “isoTOP-ABPP ratio (R) at liganded lysine P20839_K208” value in experiment [3] was determined as 1.4. Moreover, in experiment [4], the “isoTOP-ABPP ratio (R) at liganded lysine P26358_K45” value is recorded as 0.7.
For the compound `O=C(Oc1ccc([N+](=O)[O-])cc1[N+](=O)[O-])C(c1ccccc1)(c1ccccc1)c1ccccc1` [fragment 42, 2,4-Dinitrophenyl 2,2,2-triphenylacetate], the “isoTOP-ABPP ratio (R) at liganded lysine P26641_K227” value in experiment [1] (50 uM, in vitro, sol, 231) came out at 0.7. Further, in experiment [2], the “isoTOP-ABPP ratio (R) at liganded lysine Q8TCA0_K43” value worked out at 1.3. For the same compound, in experiment [3], the “isoTOP-ABPP ratio (R) at liganded lysine P20839_K208” value was 1.2. For the same compound, the “isoTOP-ABPP ratio (R) at liganded lysine P02766_K35” value in experiment [5] worked out at 1.0. Also, the “isoTOP-ABPP ratio (R) at liganded lysine O14879_K148” value in experiment [6] (50 uM, in vitro) is on record as 0.8.
On to `O=C(CCc1ccc2c(c1)OCO2)Oc1ccc([N+](=O)[O-])cc1[N+](=O)[O-]` [fragment 45, 2,4-Dinitrophenyl 3-(benzo[d][1,3]dioxol-5-yl)propanoate], for which, in experiment [1] (50 uM_231_sol_in vitro), the “isoTOP-ABPP ratio, lysine P26641_K227” value was determined as 0.6. For the same compound, the “isoTOP-ABPP ratio, lysine Q8TCA0_K43” value in experiment [2] (50 uM_231_sol_in vitro) came to 0.8. For the same compound, the “isoTOP-ABPP ratio, lysine P20839_K208” value in experiment [3] (50 uM_231_sol_in vitro) is on record as 1.5. The “isoTOP-ABPP ratio, lysine P26358_K45” value in experiment [4] (50 uM_231_sol_in vitro) is on record as 1.0. Besides, the “isoTOP-ABPP ratio, lysine P02766_K35” value in experiment [5] (50 uM_231_sol_in vitro) stood at 2.5. The “isoTOP-ABPP ratio, lysine O14879_K148” value in experiment [6] (50 uM_231_sol_in vitro) stood at 2.7.
For `COC(=O)NC(=NC(=O)OCC1c2ccccc2-c2ccccc21)n1cccn1` [fragment 49, N-Methoxycarbonyl-N′-9-fluorenylmethoxycarbonyl-pyrazole-1-carboxamidine], in experiment [2] (100 uM_231_sol_in vitro), the “isoTOP-ABPP ratio, lysine Q8TCA0_K43” value stood at 14.0. The “isoTOP-ABPP ratio, lysine P20839_K208” value in experiment [3] (100 uM_231_sol_in vitro) is recorded as 4.4. Besides, the “isoTOP-ABPP ratio, lysine P26358_K45” value in experiment [4] (100 uM_231_sol_in vitro) came out at 1.3.
Turning to `CC(C)(C)OC(=O)N=C(NC(=O)OC(C)(C)C)n1cccn1` [fragment 50, reference compound], the “isoTOP-ABPP ratio, lysine P26641_K227” value in experiment [1] (100 uM_231_sol_in vitro) is 1.2. Further, the “isoTOP-ABPP ratio, lysine Q8TCA0_K43” value in experiment [2] (100 uM_231_sol_in vitro) stood at 1.3. Also, the “isoTOP-ABPP ratio, lysine P20839_K208” value in experiment [3] (100 uM_231_sol_in vitro) worked out at 20.0. The “isoTOP-ABPP ratio, lysine P02766_K35” value in experiment [5] (100 uM_231_sol_in vitro) is listed as 2.1. Moreover, the “isoTOP-ABPP ratio, lysine O14879_K148” value in experiment [6] (100 uM_231_sol_in vitro) amounted to 1.4.
